Reference: the supplement of paper PMC8612539
Values after ≈ are worked out from the molar mass of the structure shown.

System: Pasteurella multocida
Experiment: minimum inhibitory concentration (MIC)
Protocol: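 Broth microdilution MIC (Sensititre BOPO7F bovine plate, CLSI methods) of 19 antimicrobials against field isolates of P. multocida, M. haemolytica, H. somni (deep nasopharyngeal swabs) and E. coli, Enterococcus spp. (rectal swabs) from weaned dairy heifers. Incubation 16-24 h at 35 C. MIC is the lowest concentration preventing visible growth. Values with <= or > lie at the tested range limits. Trimethoprim-sulfamethoxazole is given as the trimethoprim component of a 1:19 mixture.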

CN[C@@H]1[C@H](O)[C@H](NC)[C@H]2O[C@@]3(O)C(=O)C[C@@H](C)O[C@H]3O[C@@H]2[C@H]1O [Spectinomycin]
Conditions | minimum inhibitory concentration [µg/mL]
isolate (source animal id): 10 | 32 (≈ 96.3 µM)
isolate (source animal id): 11 | 32 (≈ 96.3 µM)
isolate (source animal id): 12 | 32 (≈ 96.3 µM)
isolate (source animal id): 19 | 32 (≈ 96.3 µM)
isolate (source animal id): 23 | 32 (≈ 96.3 µM)
isolate (source animal id): 26 | 32 (≈ 96.3 µM)
isolate (source animal id): 98 | 32 (≈ 96.3 µM)
isolate (source animal id): 104 | ≤ 8
isolate (source animal id): 115 | > 64
isolate (source animal id): 117 | 32 (≈ 96.3 µM)
isolate (source animal id): 118 | 32 (≈ 96.3 µM)
isolate (source animal id): 121 | > 64
isolate (source animal id): 124 | 32 (≈ 96.3 µM)
isolate (source animal id): 125 | 32 (≈ 96.3 µM)
isolate (source animal id): 128 | > 64
isolate (source animal id): 131 | > 64
isolate (source animal id): 135 | > 64
isolate (source animal id): 136 | > 64
isolate (source animal id): 140 | 16 (≈ 48.1 µM)
isolate (source animal id): 144 | 32 (≈ 96.3 µM)
isolate (source animal id): 146 | 32 (≈ 96.3 µM)
isolate (source animal id): 150 | > 64
isolate (source animal id): 151 | > 64
isolate (source animal id): 153 | 16 (≈ 48.1 µM)
isolate (source animal id): 155 | 32 (≈ 96.3 µM)
isolate (source animal id): 157 | 16 (≈ 48.1 µM)
isolate (source animal id): 160 | > 64
isolate (source animal id): 164 | > 64
isolate (source animal id): 165 | > 64
isolate (source animal id): 167 | > 64
isolate (source animal id): 168 | 32 (≈ 96.3 µM)
isolate (source animal id): 169 | 32 (≈ 96.3 µM)
isolate (source animal id): 170 | 32 (≈ 96.3 µM)
isolate (source animal id): 171 | 32 (≈ 96.3 µM)
isolate (source animal id): 172 | > 64
isolate (source animal id): 173 | 32 (≈ 96.3 µM)
isolate (source animal id): 174 | > 64
isolate (source animal id): 175 | > 64
isolate (source animal id): 176 | > 64
isolate (source animal id): 177 | > 64
isolate (source animal id): 178 | > 64
isolate (source animal id): 179 | 32 (≈ 96.3 µM)
isolate (source animal id): 182 | > 64
isolate (source animal id): 192 | > 64
isolate (source animal id): 193 | > 64
isolate (source animal id): 195 | > 64
isolate (source animal id): 196 | > 64
isolate (source animal id): 197 | > 64
isolate (source animal id): 198 | 32 (≈ 96.3 µM)
isolate (source animal id): 199 | 32 (≈ 96.3 µM)
isolate (source animal id): 200 | 32 (≈ 96.3 µM)
isolate (source animal id): 201 | > 64
isolate (source animal id): 203 | > 64
isolate (source animal id): 204 | > 64
isolate (source animal id): 205 | 32 (≈ 96.3 µM)
isolate (source animal id): 206 | > 64
isolate (source animal id): 207 | > 64
isolate (source animal id): 208 | 32 (≈ 96.3 µM)
isolate (source animal id): 209 | > 64
isolate (source animal id): 210 | 32 (≈ 96.3 µM)
isolate (source animal id): 213 | 32 (≈ 96.3 µM)
isolate (source animal id): 216 | > 64
isolate (source animal id): 223 | 32 (≈ 96.3 µM)
isolate (source animal id): 227 | > 64
isolate (source animal id): 229 | 32 (≈ 96.3 µM)
isolate (source animal id): 233 | 32 (≈ 96.3 µM)
isolate (source animal id): 234 | 32 (≈ 96.3 µM)
isolate (source animal id): 237 | 32 (≈ 96.3 µM)
isolate (source animal id): 241 | 16 (≈ 48.1 µM)
isolate (source animal id): 245 | 32 (≈ 96.3 µM)
isolate (source animal id): 247 | 32 (≈ 96.3 µM)
isolate (source animal id): 250 | 16 (≈ 48.1 µM)
isolate (source animal id): 254 | 32 (≈ 96.3 µM)
isolate (source animal id): 255 | 32 (≈ 96.3 µM)
isolate (source animal id): 258 | > 64
isolate (source animal id): 261 | 32 (≈ 96.3 µM)
isolate (source animal id): 262 | 32 (≈ 96.3 µM)
isolate (source animal id): 269 | 32 (≈ 96.3 µM)
isolate (source animal id): 270 | 32 (≈ 96.3 µM)
isolate (source animal id): 274 | 32 (≈ 96.3 µM)
isolate (source animal id): 275 | 32 (≈ 96.3 µM)
isolate (source animal id): 276 | 16 (≈ 48.1 µM)
isolate (source animal id): 277 | 32 (≈ 96.3 µM)
isolate (source animal id): 278 | 32 (≈ 96.3 µM)
isolate (source animal id): 279 | 32 (≈ 96.3 µM)
isolate (source animal id): 280 | 32 (≈ 96.3 µM)
isolate (source animal id): 284 | 32 (≈ 96.3 µM)
isolate (source animal id): 285 | 32 (≈ 96.3 µM)
isolate (source animal id): 287 | 32 (≈ 96.3 µM)
isolate (source animal id): 290 | 32 (≈ 96.3 µM)
isolate (source animal id): 294 | 32 (≈ 96.3 µM)
isolate (source animal id): 295 | 16 (≈ 48.1 µM)
isolate (source animal id): 296 | 32 (≈ 96.3 µM)
isolate (source animal id): 307 | 32 (≈ 96.3 µM)
isolate (source animal id): 310 | 32 (≈ 96.3 µM)
isolate (source animal id): 311 | 16 (≈ 48.1 µM)
isolate (source animal id): 312 | 16 (≈ 48.1 µM)
isolate (source animal id): 313 | 16 (≈ 48.1 µM)
isolate (source animal id): 315 | 32 (≈ 96.3 µM)
isolate (source animal id): 316 | 32 (≈ 96.3 µM)

CNC(C)C1CCC(N)C(OC2C(N)CC(N)C(OC3OCC(C)(O)C(NC)C3O)C2O)O1 (stereo not given) [Gentamicin]
Conditions | minimum inhibitory concentration [µg/mL]
isolate (source animal id): 10 | 4 (≈ 8.38 µM)
isolate (source animal id): 11 | 2 (≈ 4.19 µM)
isolate (source animal id): 12 | 4 (≈ 8.38 µM)
isolate (source animal id): 19 | 4 (≈ 8.38 µM)
isolate (source animal id): 23 | 4 (≈ 8.38 µM)
isolate (source animal id): 26 | 4 (≈ 8.38 µM)
isolate (source animal id): 98 | 4 (≈ 8.38 µM)
isolate (source animal id): 104 | 2 (≈ 4.19 µM)
isolate (source animal id): 115 | 4 (≈ 8.38 µM)
isolate (source animal id): 117 | 4 (≈ 8.38 µM)
isolate (source animal id): 118 | 4 (≈ 8.38 µM)
isolate (source animal id): 121 | 4 (≈ 8.38 µM)
isolate (source animal id): 124 | 4 (≈ 8.38 µM)
isolate (source animal id): 125 | 4 (≈ 8.38 µM)
isolate (source animal id): 128 | 4 (≈ 8.38 µM)
isolate (source animal id): 131 | 16 (≈ 33.5 µM)
isolate (source animal id): 135 | 8 (≈ 16.8 µM)
isolate (source animal id): 136 | 4 (≈ 8.38 µM)
isolate (source animal id): 140 | 4 (≈ 8.38 µM)
isolate (source animal id): 144 | 4 (≈ 8.38 µM)
isolate (source animal id): 146 | 4 (≈ 8.38 µM)
isolate (source animal id): 150 | 4 (≈ 8.38 µM)
isolate (source animal id): 151 | 4 (≈ 8.38 µM)
isolate (source animal id): 153 | 4 (≈ 8.38 µM)
isolate (source animal id): 155 | 4 (≈ 8.38 µM)
isolate (source animal id): 157 | 4 (≈ 8.38 µM)
isolate (source animal id): 160 | 4 (≈ 8.38 µM)
isolate (source animal id): 164 | 4 (≈ 8.38 µM)
isolate (source animal id): 165 | 4 (≈ 8.38 µM)
isolate (source animal id): 167 | 4 (≈ 8.38 µM)
isolate (source animal id): 168 | 4 (≈ 8.38 µM)
isolate (source animal id): 169 | 4 (≈ 8.38 µM)
isolate (source animal id): 170 | 4 (≈ 8.38 µM)
isolate (source animal id): 171 | 4 (≈ 8.38 µM)
isolate (source animal id): 172 | 4 (≈ 8.38 µM)
isolate (source animal id): 173 | 4 (≈ 8.38 µM)
isolate (source animal id): 174 | 4 (≈ 8.38 µM)
isolate (source animal id): 175 | 4 (≈ 8.38 µM)
isolate (source animal id): 176 | 4 (≈ 8.38 µM)
isolate (source animal id): 177 | 4 (≈ 8.38 µM)
isolate (source animal id): 178 | 4 (≈ 8.38 µM)
isolate (source animal id): 179 | 4 (≈ 8.38 µM)
isolate (source animal id): 182 | 4 (≈ 8.38 µM)
isolate (source animal id): 192 | 4 (≈ 8.38 µM)
isolate (source animal id): 193 | 4 (≈ 8.38 µM)
isolate (source animal id): 195 | 4 (≈ 8.38 µM)
isolate (source animal id): 196 | 4 (≈ 8.38 µM)
isolate (source animal id): 197 | 4 (≈ 8.38 µM)
isolate (source animal id): 198 | 4 (≈ 8.38 µM)
isolate (source animal id): 199 | 4 (≈ 8.38 µM)
isolate (source animal id): 200 | 4 (≈ 8.38 µM)
isolate (source animal id): 201 | 4 (≈ 8.38 µM)
isolate (source animal id): 203 | 4 (≈ 8.38 µM)
isolate (source animal id): 204 | 4 (≈ 8.38 µM)
isolate (source animal id): 205 | 4 (≈ 8.38 µM)
isolate (source animal id): 206 | 4 (≈ 8.38 µM)
isolate (source animal id): 207 | 4 (≈ 8.38 µM)
isolate (source animal id): 208 | 4 (≈ 8.38 µM)
isolate (source animal id): 209 | 4 (≈ 8.38 µM)
isolate (source animal id): 210 | 4 (≈ 8.38 µM)
isolate (source animal id): 213 | 4 (≈ 8.38 µM)
isolate (source animal id): 216 | 4 (≈ 8.38 µM)
isolate (source animal id): 223 | 4 (≈ 8.38 µM)
isolate (source animal id): 227 | 2 (≈ 4.19 µM)
isolate (source animal id): 229 | 2 (≈ 4.19 µM)
isolate (source animal id): 233 | 4 (≈ 8.38 µM)
isolate (source animal id): 234 | 4 (≈ 8.38 µM)
isolate (source animal id): 237 | 4 (≈ 8.38 µM)
isolate (source animal id): 241 | 4 (≈ 8.38 µM)
isolate (source animal id): 245 | 4 (≈ 8.38 µM)
isolate (source animal id): 247 | 4 (≈ 8.38 µM)
isolate (source animal id): 250 | 2 (≈ 4.19 µM)
isolate (source animal id): 254 | 4 (≈ 8.38 µM)
isolate (source animal id): 255 | 4 (≈ 8.38 µM)
isolate (source animal id): 258 | 4 (≈ 8.38 µM)
isolate (source animal id): 261 | 2 (≈ 4.19 µM)
isolate (source animal id): 262 | 4 (≈ 8.38 µM)
isolate (source animal id): 269 | 4 (≈ 8.38 µM)
isolate (source animal id): 270 | 4 (≈ 8.38 µM)
isolate (source animal id): 274 | 4 (≈ 8.38 µM)
isolate (source animal id): 275 | 4 (≈ 8.38 µM)
isolate (source animal id): 276 | 4 (≈ 8.38 µM)
isolate (source animal id): 277 | 4 (≈ 8.38 µM)
isolate (source animal id): 278 | 4 (≈ 8.38 µM)
isolate (source animal id): 279 | 4 (≈ 8.38 µM)
isolate (source animal id): 280 | 4 (≈ 8.38 µM)
isolate (source animal id): 284 | 8 (≈ 16.8 µM)
isolate (source animal id): 285 | 2 (≈ 4.19 µM)
isolate (source animal id): 287 | 2 (≈ 4.19 µM)
isolate (source animal id): 290 | 4 (≈ 8.38 µM)
isolate (source animal id): 294 | 4 (≈ 8.38 µM)
isolate (source animal id): 295 | 2 (≈ 4.19 µM)
isolate (source animal id): 296 | 2 (≈ 4.19 µM)
isolate (source animal id): 307 | 4 (≈ 8.38 µM)
isolate (source animal id): 310 | 4 (≈ 8.38 µM)
isolate (source animal id): 311 | 4 (≈ 8.38 µM)
isolate (source animal id): 312 | ≤ 1
isolate (source animal id): 313 | 2 (≈ 4.19 µM)
isolate (source animal id): 315 | 4 (≈ 8.38 µM)
isolate (source animal id): 316 | 4 (≈ 8.38 µM)
